Test results taken from patent EP2573108A1, “Methods for identifying compounds capable of inhibiting degradation of PKM zeta” (SYGNIS Bioscience GmbH & Co KG, priority 2011, dated 2013).
Where two headings read alike, the source gives them in different places. Where a SMILES comes first, the peptide text is derived from it. The star is where a group is joined. Cbz = O=C(OCc1ccccc1)*

Key:
[1] = system: PKM zeta; assay: PKM zeta protein stability after translation block with cycloheximide (Western blot), COS cells; type: cell-based; conditions: up to 48 h
Experimental: Electroporation of COS1 cells. COS1 cells were cultured in Dulbecco's modified eagle medium (DMEM) high glucose supplemented with 10% fetal calf serum (FCS). Cells were transfected with appropriate plasmids as indicated in the result section. For electroporation, COS-1 cells were harvested and resuspended in electroporation (EP)-buffer (50 mM K2HPO4, 20 mM CH3COOK, 20 mM KOH, pH 7.4) at a densitiy of 3.5x10^6 cells per transfection. After addition of 25 mM MgSO4, cells were mixed with 10 µg of plasmid-DNA (ratio of pulled down plasmid to co-expressed plasmid was 1:4; pure co-expression of two plasmids was performed in a ratio of 1:2) and transferred to an electroporation cuvette. Electroporation was performed in a Biorad Gene Pulsar II electroporator at 500 µF capacitance and 230 V, and cells were transferred into DMEM supplemented with 10% FCS and plated immediately. 48 h after transfection, cells were harvested for Co-IP. To perform western blot analysis, cells were stimulated 24 h after transfection for the indicated time points with cycloheximide and MG-132, respectively.
Western blotting. […] After syringing the lysate 5x, lysate was spun down at 13000 rpm at 4 °C for 10 min and the protein concentration of the supernate was determined (BCA-Test, Pierce). […] For quantification of scanned autoradiographs Windows ImageJ (NIH, Bethesda, MD,USA) was used.

[2] = system: PKM zeta; assay: PKM zeta protein stability after translation block with cycloheximide (Western blot), SHSY-5Y cells; type: cell-based
Experimental: Western blotting. […] Lysates were frozen in liquid nitrogen and stored afterwards at -20°C. After syringing the lysate 5x, lysate was spun down at 13000 rpm at 4 °C for 10 min and the protein concentration of the supernate was determined (BCA-Test, Pierce). 1/5 volume of 5x sample-buffer (with β-Mercaptoethanol) was added and samples were denatured at 95 °C for 5 min. 50 µg of protein was run on a SDS-PAGE and proteins were transferred to nitrocellulose membranes using an iBlot™ Dry Blotting System (Invitrogen, Karlsruhe, Germany). […] For quantification of scanned autoradiographs Windows ImageJ (NIH, Bethesda, MD,USA) was used.

[3] = system: KIBRA- PKM zeta complex; conditions: for displacement of KIBRA from a pre-formed complex with PKM zeta: COS lysates, Fig. 4f
Experimental: (§1) Starting from aa 882, increasing 20aa stretches of KIBRA were deleted and constructs were tested for interaction with FLAG-tagged PKM zeta. […] PKM zeta-flag expression constructs were co-transfected with EGFP-fusion constructs containing the 956-975 PKM zeta binding motif. Amino acids from position 964 to 974 were mutated to Alanin. […] Increasing concentrations of the peptide were added to COS-lysates co-expressing KIBRA and FLAG- PKM zeta before pull-down with anti-FLAG beads. […] The C-terminal serine residues that can be phosphorylated by PKM zeta in vitro were mutated to alanine or glutamate. […] Neurons were infected with a KIBRA-EGFP fusion constructs.
(§2) Co-immunoprecipitation. 2d after electroporation, cells were washed twice with ice-cold 1xPBS, and lyesd (50 mM Tris/HCl pH 7.4, 150 mM NaCl, 0.5% NP40, 20 mM NaF, 2 mM EDTA, 2 mM EGTA, 2 mM orthovanadate, protease inhibitor cocktail) at 4°C. Lysate was incubated with anti-flag beads (Sigma) at 4 °C for 2h, 5µl of peptide solution was added as indicated. Protein was released by 1x SDS loading buffer (without reducing reagents) (95 °C for 5min).
(§3) In more detail, 2d after electroporation, COS cells were washed twice with ice-cold IxPBS, and protein extraction was carried out by lysis of cells with lysis-buffer (50 mM Tris/HCl pH 7.4, 150 mM NaCl, 0.5% NP40, 20 mM NaF, 2 mM EDTA, 2 mM EGTA, 2 mM orthovanadate, protease inhibitor cocktail) at 4 °C. After incubation for 20 min at 4°C, the lysate was spun down at 13500 rpm at 4 °C for 10 min. One part of the supernatant was kept for direct Western analysis (lysate).

[4] = system: PKM zeta; conditions: PKM zeta expressed in COS cells, Fig. 4e
Experimental: as §1, §2, §3

Row | Compound | PKM zeta levels after CHX [1] | PKM zeta levels after CHX [2] | displacement of KIBRA from a pre-formed complex with PKM zeta [3] | displacement of KIBRA from a pre-formed complex with PKM zeta ([3]; listed as aa 948-978) | IC50 ([3]; increasing concentrations of peptide added to COS-lysates co-expressing KIBRA and FLAG-PKM zeta before pull-down with anti-FLAG beads, estimated) | binding to PKM zeta ([4]; listed as aa 948-978) | binding to PKM zeta ([4]; listed as synthetic biotin-labeled peptide)
1 | CC(C)C[C@@H](C=O)NC(=O)[C@H](CC(C)C)NC(=O)[C@H](CC(C)C)NC(=O)OCc1ccccc1 [MG132] (Cbz-Leu-Leu-Leu-aldehyde) | prevented the time-dependent decrease in kinase levels | prevented the time-dependent decrease in kinase levels |  |  |  |  | 
2 | DSSTLSKKPPFVRNSLERRSVRMKRPSSVKS [synthetic peptide 948-978] |  |  | able to disrupt a preformed KIBRA- PKM zeta complex | able to displace KIBRA from a pre-formed complex with PKM zeta in a concentration-dependent manner | ~60 nM | sufficient for binding | able to bind PKM zeta
